Assay results from US8836218B2, “Methods of treatment using combination therapy” (Ambit Biosciences Corp., priority 2009, dated 2014).
Read-outs that look alike come from different tables or passages of the source. Blank lines part the entries; values can stand above or below the compound they belong to.

What was measured:
MV4-11 cell lines [1] = conditions: MV4-11, cytarabine alone; read-out: reported EC50 value; cited from earlier work
[2] = system: MV4-11 solid tumor flank model; experiment: Efficacy study of AC220 plus cytarabine in the MV4-11 solid tumor flank model; type: in vivo, SCID mouse; conditions: for sustained complete regressions: either agent alone (Groups 3 and 5): cytarabine 30 mkd IP Day 1 to 10, AC220 1 mkd PO Day 1 to 24
Experimental: Dosing was initiated on day 14 post-inoculation with groups of 10 animals per arm. The size of the tumors averaged about 222 mm^3. […] Cytarabine was delivered in a formulation of sterile saline (5 ml/kg/day, prepared weekly) at about 30 or about 60 mkd, QD, IP, and dose was adjusted for body weight. […] The clinical signs and body weight were measured twice weekly. White blood cell (WBC) counts determined at the end of the cytarabine dosing period and again 7 days post drug treatment. The study was carried out in one or multiple treatment cycles with cytarabine delivered for 10 days on each 24 day cycle. […] [table]

[3] = system: MV4-11 solid tumor flank model; experiment: In vivo study of AC220 plus Aza-C in the MV4-11 solid tumor flank model; set-up: species or system SCID mouse; conditions: for flank tumor volume: AC220 0.5 mkd PO
Experimental: The size of the tumors averaged about 230 mm^3. […] Aza-C was delivered in a formulation of sterile saline (10 ml/kg/day, prepared in 5-day batches) at about 3 or about 1 mkd, QD, IP, and dose was adjusted for body weight. The average group starting body weight was about 20.6 g. The clinical signs and body weight were measured twice weekly. White blood cell (WBC) counts determined at the end of the Aza-C dosing period and again 7 days post drug treatment. The study was carried out in one or multiple treatment cycles with Aza-C delivered for 5 days on each 15 day cycle. […] [table]

MV4-11 cell lines [4] = conditions: MV4-11, cladribine alone; read-out: reported EC50 value; cited from earlier work
MV4-11 cell lines [5] = conditions: MV4-11, etoposide alone; read-out: reported EC50 value; cited from earlier work
MV4-11 cell lines [6] = conditions: MV4-11, daunorubicin alone; read-out: reported EC50 value; cited from earlier work
MV4-11 cell lines [7] = experiment: AC220 in combination with cladribine, cell viability study (CellTiter-Blue); type: cell-based; conditions: Homo sapiens; MV4-11, AC220 alone
Experimental: (§1) In this assay, the sequence of administration of AC220 and cladribine was examined for its cytotoxic effect. For the combination schedules tested, MV4-11 cell lines were cultured in Iscove medium with 10% fetal bovine serum and penicillin/streptomycin to a density of 3e5/mL and plated at 6e4 cells per well. […] Cytotoxicity was assessed using the CellTiter-Blue™ Viability Assay (#G8081 Promega). A combination index (CI) value was generated for each combination experiment using a commercially available software program (Calcusyn; Biosoft, Manchester, United Kingdom). The interaction of the two agents was analyzed using the median effect method of Chou and Talalay (Adv. Enyme Regul. 1984; 22:27-55).

MV4-11 cell lines [8] = experiment: AC220 in combination with cytarabine, cell viability study (CellTiter-Blue); type: cell-based; conditions: Homo sapiens; MV4-11, AC220 alone
Experimental: In this assay, the sequence of administration of AC220 and cytarabine was examined for its cytotoxic effect. For the combination schedules tested, MV4-11 cell lines were cultured in Iscove medium with 10% fetal bovine serum and penicillin/streptomycin to a density of 3e5/mL and plated at 6e4 cells per well. […] Cytotoxicity was assessed using the CellTiter-Blue™ Viability Assay (#G8081 Promega). A combination index (CI) value was generated for each combination experiment using a commercially available software program (Calcusyn; Biosoft, Manchester, United Kingdom). The interaction of the two agents was analyzed using the median effect method of Chou and Talalay (Adv. Enyme Regul. 1984; 22:27-55).

MV4-11 cell lines [9] = experiment: AC220 in combination with daunorubicin, cell viability study (CellTiter-Blue); type: cell-based; conditions: Homo sapiens; MV4-11, AC220 alone
Experimental: as §1, with “daunorubicin” for “cladribine”, “RPMI” for “Iscove”, “3e5/mL to 1e6/mL” for “3e5/mL”, “6e5” for “6e4”

MV4-11 cell lines [10] = experiment: AC220 in combination with etoposide, cell viability study (CellTiter-Blue); type: cell-based; conditions: Homo sapiens; MV4-11, AC220 alone
Experimental: as §1, with “etoposide” for “cladribine”, “RPMI” for “Iscove”, “3e5/mL to 1e6/mL” for “3e5/mL”, “6e5” for “6e4”, “22:27-55). The Combination index and Weighted combination index were calculated as described in Chou, Pharmacol. Rev. 58:621-681, 2006.” for “22:27-55).”
As described by Chou, supra, the ranges of CI indicate synergism, additive effect, and antagonism as follows:
CI<1—synergism, CI=1—additive effect, and CI>1—antagonism.

Structure (SMILES): Nc1ccn([C@@H]2O[C@H](CO)[C@@H](O)[C@@H]2O)c(=O)n1 [cytarabine]
- EC50 (MV4-11 cell lines [1]): 380 nM
- sustained complete regressions [2]: no sustained complete regressions
- tumor burden ([2]; sequential, second administration of Ara-C in animals that had 2 weeks of AC220 treatment): capable of reducing tumor burden

Structure (SMILES): Nc1ncn([C@@H]2O[C@H](CO)[C@@H](O)[C@H]2O)c(=O)n1 [Aza-C, azacitidine]
- reduction in tumor volume ([3]; Aza-C at the 3 mkg dose, IP, Day 1 to 5): ~50%

Structure (SMILES): Nc1nc(Cl)nc2c1ncn2[C@H]1C[C@H](O)[C@@H](CO)O1 [cladribine]
- EC50 (MV4-11 cell lines [4]): 16.2 nM

Structure (SMILES): COc1cc([C@@H]2c3cc4c(cc3[C@@H](O[C@@H]3O[C@@H]5CO[C@@H](C)O[C@H]5[C@H](O)[C@H]3O)[C@H]3COC(=O)[C@H]23)OCO4)cc(OC)c1O [etoposide]
- EC50 (MV4-11 cell lines [5]): 34.6 nM

Structure (SMILES): COc1cccc2c1C(=O)c1c(O)c3c(c(O)c1C2=O)C[C@@](O)(C(C)=O)C[C@@H]3O[C@H]1C[C@H](N)[C@H](O)[C@H](C)O1 [daunorubicin]
- EC50 (MV4-11 cell lines [6]): 12.7 nM

- EC50 (MV4-11 cell lines [7]): 0.35 nM
- EC50 (MV4-11 cell lines [8]): 0.35 nM
- EC50 (MV4-11 cell lines [9]): 0.35 nM
- EC50 (MV4-11 cell lines [10]): 0.35 nM
Structure (SMILES): CC(C)(C)c1cc(NC(=O)Nc2ccc(-c3cn4c(n3)sc3cc(OCCN5CCOCC5)ccc34)cc2)no1 [AC220, N-(5-tert-butyl-isoxazol-3-yl)-N′-{4-[7-(2-morpholin-4-yl-ethoxy)imidazo[2,1-b][1,3]benzothiazol-2-yl]phenyl}urea]
- flank tumor volume ([3]; treatment at 15 days post inoculation): tumor stasis
- flank tumor volume ([3]; treatment at 20 days post inoculation): tumor stasis
- sustained complete regressions [2]: no sustained complete regressions
